Test results: ChEMBL document CHEMBL1201862, “PubChem BioAssay data set” (2004)
The source made the active and inactive calls.

Key:
[1] = biological target: Nuclear receptor subfamily 5 group A member 2 (Homo sapiens, UniProt O00482); format: functional, cell-based;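 further: HEK293T cells transfected with LRH-1 and a StAR promoter luciferase reporter; potency for inhibitors that lower LRH-1 driven reporter light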
Steroidogenic factor 1 = Steroidogenic factor 1 (Homo sapiens, UniProt Q13285); experiment: Counterscreen for inverse agonists of the liver receptor homolog-1 (LRH-1; NR5A2): Luminescence-based cell-based high throughput dose response assay to identify inverse agonists of the Steroidogenic Factor 1 Nuclear Receptor (SF1; NR5A1).; format: functional
Chain of Steroidogenic factor 1 (Q13285 whole entry): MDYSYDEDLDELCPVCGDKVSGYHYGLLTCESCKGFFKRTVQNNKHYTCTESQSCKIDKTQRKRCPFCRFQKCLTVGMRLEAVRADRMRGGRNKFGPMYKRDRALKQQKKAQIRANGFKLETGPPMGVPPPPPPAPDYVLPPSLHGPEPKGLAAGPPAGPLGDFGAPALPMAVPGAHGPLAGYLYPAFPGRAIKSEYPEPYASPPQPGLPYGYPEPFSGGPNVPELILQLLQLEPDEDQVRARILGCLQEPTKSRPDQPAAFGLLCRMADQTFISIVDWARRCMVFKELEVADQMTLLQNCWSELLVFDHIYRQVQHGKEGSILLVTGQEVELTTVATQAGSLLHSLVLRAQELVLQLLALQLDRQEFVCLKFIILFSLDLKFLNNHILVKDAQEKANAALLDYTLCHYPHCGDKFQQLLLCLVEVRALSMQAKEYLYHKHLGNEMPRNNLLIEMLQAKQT

[2] = nonselective StAR promoter luciferase inhibitors – cell-based, luminescence, luciferase reporter, counter-screen for LRH-1 inverse agonist project, dose response (AID 651969); format: functional
Protein RecA = biological target: T1, Protein RecA (Mycobacterium tuberculosis, UniProt P9WHJ3); experiment: Fluorescence Cell-Free Homogeneous Dose Retest to Identify Inhibitors of RecA-Intein Splicing Activity. [Related pubchem assays (depositor defined):AID2097, AID2223, AID489010, AID492950]; format: functional
T1 sequence (P9WHJ3 whole entry): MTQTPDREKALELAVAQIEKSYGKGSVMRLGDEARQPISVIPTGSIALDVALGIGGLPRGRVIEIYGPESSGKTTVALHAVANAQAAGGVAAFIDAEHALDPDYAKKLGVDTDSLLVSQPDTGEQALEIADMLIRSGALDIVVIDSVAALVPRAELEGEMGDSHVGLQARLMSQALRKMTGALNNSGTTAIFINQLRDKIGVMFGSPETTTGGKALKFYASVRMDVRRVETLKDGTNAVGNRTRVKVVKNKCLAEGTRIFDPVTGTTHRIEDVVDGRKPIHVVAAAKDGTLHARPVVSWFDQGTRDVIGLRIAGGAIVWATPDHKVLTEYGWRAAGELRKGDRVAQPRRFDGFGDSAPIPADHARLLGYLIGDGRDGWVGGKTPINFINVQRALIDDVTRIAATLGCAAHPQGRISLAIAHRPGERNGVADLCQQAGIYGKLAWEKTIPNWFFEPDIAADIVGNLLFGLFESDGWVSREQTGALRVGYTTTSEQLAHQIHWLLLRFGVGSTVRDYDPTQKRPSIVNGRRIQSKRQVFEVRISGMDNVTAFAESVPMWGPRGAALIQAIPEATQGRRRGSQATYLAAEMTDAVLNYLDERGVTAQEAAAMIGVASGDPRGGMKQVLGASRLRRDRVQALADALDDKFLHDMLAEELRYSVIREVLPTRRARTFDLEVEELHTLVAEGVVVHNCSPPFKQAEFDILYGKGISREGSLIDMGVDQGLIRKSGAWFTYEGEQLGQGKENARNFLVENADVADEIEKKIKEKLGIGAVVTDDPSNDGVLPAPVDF

[3] = viability of PTEN-deleted HCT116 cells – cell-based, HCT116 PTEN knockout, dose response (AID 1047); format: functional;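 further: HCT116 colon tumor cells with PTEN knocked out; cells exposed to compound for 60 hours before readout; potency for loss of cell viability measured by luminescence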
Hexokinase HKDC1 = biological target: T2, Hexokinase HKDC1 (Homo sapiens, UniProt Q2TB90); experiment: inhibition of HKDC1 glucose phosphorylation – biochemical, W721R variant, dose response (AID 504729); format: functional
T2 sequence (Q2TB90 whole entry): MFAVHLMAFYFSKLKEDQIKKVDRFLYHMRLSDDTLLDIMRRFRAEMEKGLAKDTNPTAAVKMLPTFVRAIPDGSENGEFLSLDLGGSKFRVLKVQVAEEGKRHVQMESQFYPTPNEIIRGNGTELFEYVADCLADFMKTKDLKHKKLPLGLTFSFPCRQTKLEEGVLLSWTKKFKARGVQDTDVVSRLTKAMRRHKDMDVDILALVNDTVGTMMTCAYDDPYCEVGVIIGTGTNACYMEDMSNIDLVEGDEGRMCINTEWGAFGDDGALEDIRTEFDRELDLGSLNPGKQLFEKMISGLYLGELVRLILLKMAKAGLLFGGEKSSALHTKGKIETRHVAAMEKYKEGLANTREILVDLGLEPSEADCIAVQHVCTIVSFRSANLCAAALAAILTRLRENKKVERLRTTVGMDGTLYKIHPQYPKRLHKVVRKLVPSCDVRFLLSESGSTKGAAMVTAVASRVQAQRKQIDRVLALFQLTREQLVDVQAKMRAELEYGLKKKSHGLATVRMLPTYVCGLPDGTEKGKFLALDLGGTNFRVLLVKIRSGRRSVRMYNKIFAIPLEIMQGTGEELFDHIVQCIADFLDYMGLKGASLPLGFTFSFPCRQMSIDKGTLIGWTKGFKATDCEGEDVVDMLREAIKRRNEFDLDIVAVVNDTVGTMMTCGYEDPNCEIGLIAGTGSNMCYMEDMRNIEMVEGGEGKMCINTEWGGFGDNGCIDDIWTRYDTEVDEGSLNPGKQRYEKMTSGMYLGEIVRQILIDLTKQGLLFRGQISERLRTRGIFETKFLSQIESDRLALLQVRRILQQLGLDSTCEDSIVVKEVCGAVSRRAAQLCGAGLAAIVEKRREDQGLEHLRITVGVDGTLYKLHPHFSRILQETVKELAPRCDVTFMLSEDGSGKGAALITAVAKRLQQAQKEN

[4] = biological target: T3, Mitochondrial peptide methionine sulfoxide reductase (Bos taurus, UniProt P54149); format: functional;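 further: absorbance read-out, biochemical high-throughput dose-response screen for MsrA inhibitors, confirmatory; recombinant bovine MsrA coupled to E. coli TrxB with NADPH and selenocystamine; potency is for inhibitors of MsrA activity on DMSO substrate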
T3 sequence (P54149 whole entry): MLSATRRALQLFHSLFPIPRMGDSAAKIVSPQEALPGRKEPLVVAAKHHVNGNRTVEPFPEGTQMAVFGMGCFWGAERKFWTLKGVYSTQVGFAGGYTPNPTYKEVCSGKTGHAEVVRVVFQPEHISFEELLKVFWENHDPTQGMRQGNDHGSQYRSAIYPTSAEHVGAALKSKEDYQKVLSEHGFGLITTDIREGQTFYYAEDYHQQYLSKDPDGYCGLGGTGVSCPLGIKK

BJ [5] = experiment: BJ-TERT-LT-ST fibroblast viability loss – cell-based, RAS-independent, luminescence, dose response (AID 1935); format: functional; conditions: Homo sapiens;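 further: BJ fibroblasts immortalized with TERT plus LT and ST oncogenes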
[6] = biological target: T4, Replicative DNA helicase DnaB (Mycobacterium tuberculosis, UniProt P9WMR3); experiment: DnaB intein splicing inhibitors, dose response, biochemical, cell-free fluorescence (AID 449749); format: functional
T4 sequence (P9WMR3 whole entry): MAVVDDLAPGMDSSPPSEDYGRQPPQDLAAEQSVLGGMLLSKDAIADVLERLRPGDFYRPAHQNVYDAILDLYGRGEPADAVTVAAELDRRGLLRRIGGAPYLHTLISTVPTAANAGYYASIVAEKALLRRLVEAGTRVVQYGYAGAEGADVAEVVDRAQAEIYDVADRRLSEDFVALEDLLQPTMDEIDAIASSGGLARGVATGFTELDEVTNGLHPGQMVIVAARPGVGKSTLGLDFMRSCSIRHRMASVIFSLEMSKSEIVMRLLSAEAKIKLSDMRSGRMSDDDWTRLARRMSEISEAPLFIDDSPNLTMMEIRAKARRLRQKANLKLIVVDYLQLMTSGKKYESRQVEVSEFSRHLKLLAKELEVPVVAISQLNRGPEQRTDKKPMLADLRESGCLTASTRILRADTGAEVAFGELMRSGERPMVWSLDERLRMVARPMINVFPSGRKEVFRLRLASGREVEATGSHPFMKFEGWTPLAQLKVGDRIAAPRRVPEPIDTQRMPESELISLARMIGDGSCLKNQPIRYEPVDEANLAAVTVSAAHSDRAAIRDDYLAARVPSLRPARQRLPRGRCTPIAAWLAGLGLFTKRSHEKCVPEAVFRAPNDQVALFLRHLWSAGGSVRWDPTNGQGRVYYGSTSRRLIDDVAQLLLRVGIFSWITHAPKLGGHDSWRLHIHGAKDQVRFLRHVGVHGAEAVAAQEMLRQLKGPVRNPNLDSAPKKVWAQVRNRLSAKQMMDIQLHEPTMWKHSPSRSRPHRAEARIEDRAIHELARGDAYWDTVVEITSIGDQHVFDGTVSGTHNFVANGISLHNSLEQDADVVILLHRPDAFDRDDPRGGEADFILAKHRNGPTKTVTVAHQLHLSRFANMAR

BJ [7] = experiment: BJ-TERT fibroblast viability loss – cell-based, RAS-independent, luminescence, dose response (AID 1933); format: functional; conditions: Homo sapiens
BJ [8] = experiment: cells; format: functional, cell-based; conditions: Homo sapiens
[9] = viability of HCT116 lacking mutant beta-catenin – cell-based, human colon tumor, dose response (AID 1045); format: functional;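 further: HCT116 colon tumor cells with beta catenin knocked out; cells exposed to compound for 60 hours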
[10] = DRD fibroblast viability loss – cell-based, non-viral oncogenic, luminescence, dose response (AID 1934); format: functional; conditions: Homo sapiens
[11] = biological target: T5, Apoptotic protease-activating factor 1 (Homo sapiens, UniProt O14727); experiment: SAR analysis of small molecule Activators of Apaf-1 in a Fluorescent assay.; format: functional; conditions: read-out: EC50_Mean;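 further: caspase-3 cleavage of fluorogenic Rh110 DEVD substrate downstream of apoptosome activation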
T5 sequence (O14727 whole entry): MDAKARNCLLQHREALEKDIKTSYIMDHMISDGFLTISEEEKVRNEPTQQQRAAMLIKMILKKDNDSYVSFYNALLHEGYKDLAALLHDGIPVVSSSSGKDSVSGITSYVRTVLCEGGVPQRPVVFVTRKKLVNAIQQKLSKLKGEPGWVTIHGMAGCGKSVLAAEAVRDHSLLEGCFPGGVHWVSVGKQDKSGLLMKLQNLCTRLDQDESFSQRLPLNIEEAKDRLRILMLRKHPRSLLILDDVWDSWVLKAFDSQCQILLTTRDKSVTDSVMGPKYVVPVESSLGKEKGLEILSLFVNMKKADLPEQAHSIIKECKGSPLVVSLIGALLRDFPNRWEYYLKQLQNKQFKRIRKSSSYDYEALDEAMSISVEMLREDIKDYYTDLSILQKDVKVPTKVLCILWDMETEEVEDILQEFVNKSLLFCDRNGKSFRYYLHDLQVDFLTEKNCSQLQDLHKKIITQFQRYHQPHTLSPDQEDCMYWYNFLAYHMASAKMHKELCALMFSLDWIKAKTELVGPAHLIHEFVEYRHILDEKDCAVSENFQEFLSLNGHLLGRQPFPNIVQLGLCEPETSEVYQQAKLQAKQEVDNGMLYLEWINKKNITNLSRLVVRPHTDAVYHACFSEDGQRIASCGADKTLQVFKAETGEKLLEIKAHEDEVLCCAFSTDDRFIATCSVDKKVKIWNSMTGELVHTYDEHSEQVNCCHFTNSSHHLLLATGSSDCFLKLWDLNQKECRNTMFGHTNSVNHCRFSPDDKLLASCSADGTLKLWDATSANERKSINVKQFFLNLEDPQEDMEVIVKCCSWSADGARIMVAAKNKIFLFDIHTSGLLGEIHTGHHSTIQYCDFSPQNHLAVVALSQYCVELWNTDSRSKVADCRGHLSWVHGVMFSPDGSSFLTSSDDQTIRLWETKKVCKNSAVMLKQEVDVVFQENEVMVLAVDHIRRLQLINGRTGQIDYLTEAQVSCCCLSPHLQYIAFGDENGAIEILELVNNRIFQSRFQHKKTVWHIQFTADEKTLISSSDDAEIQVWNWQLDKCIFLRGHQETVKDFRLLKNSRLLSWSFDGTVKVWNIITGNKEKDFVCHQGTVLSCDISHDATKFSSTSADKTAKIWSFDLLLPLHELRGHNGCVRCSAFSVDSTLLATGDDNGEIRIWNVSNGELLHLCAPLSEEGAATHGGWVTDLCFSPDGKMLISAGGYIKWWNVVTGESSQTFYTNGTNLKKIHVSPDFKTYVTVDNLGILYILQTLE

Chain of Nuclear receptor subfamily 5 group A member 2 (O00482 whole entry): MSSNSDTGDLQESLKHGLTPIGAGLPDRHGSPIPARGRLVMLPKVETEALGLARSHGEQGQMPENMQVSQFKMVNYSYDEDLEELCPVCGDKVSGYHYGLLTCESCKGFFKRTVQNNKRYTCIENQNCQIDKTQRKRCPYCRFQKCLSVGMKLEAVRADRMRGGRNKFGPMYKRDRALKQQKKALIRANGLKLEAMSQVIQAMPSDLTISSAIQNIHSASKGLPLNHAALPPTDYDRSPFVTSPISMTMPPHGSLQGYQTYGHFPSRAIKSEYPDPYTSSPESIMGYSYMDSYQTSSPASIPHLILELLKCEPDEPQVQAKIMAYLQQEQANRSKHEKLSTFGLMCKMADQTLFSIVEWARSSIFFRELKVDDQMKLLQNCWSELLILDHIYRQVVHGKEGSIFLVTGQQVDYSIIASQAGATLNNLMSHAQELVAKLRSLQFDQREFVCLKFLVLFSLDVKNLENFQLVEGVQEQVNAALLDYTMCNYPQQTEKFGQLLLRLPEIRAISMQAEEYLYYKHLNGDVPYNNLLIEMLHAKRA

## CC(=O)Nc1ccc(NC(=O)CSc2nnc(-c3cc4ccccc4o3)n2C)cc1
[1]
  IC50: 35.9 µM (inactive)
Steroidogenic factor 1
  IC50: 18.2 µM (inactive)
[2]
  IC50: 35.9 µM (inactive)

## O=C(C1=C(c2ccccc2)C(=O)c2ccccc2C1=O)c1ccccc1
Protein RecA
  EC50: 0.862 µM (active)
[3]
  EC50: 2.73 µM (active)
Hexokinase HKDC1
  IC50: 10.1 µM (active)
[4]
  IC50: 13.8 µM (inactive)
BJ [5]
  EC50: 8.65 µM (inconclusive)
[6]
  AC50: 8.2 µM (active)
BJ [7]
  EC50: 5.95 µM (inconclusive)
BJ [8]
  EC50: 7.17 µM (active)
[9]
  EC50: 2.72 µM (active)
[10]
  EC50: > 150 µM (not active)

## O=C(O)c1coc(-c2ccc(-c3ccccc3)cc2)n1
[11]
  EC50: > 100 µM (inactive)
